# Test results taken from patent US11583525B2, “Geranylgeranyltransferase I inhibitor for treatment of a PTEN defective cancer” (H. LEE MOFFITT CANCER CENTER AND RESEARCH INSTITUTE, INC., priority 2017, dated 2023).
# Entries after “also recorded” stand apart in the source; their conditions may differ.
# Test system: A549 cells
# Experiment: A549 cell xenografts in NOD/SCID gamma mice, GGTi-2418 alone or in combination with PDT
# Format: in vivo
# Conditions: 50 mg kg-1 intratumoural injection
# Excerpt: FIGS. 4A, 4B, 4C, and 4D show both a non-degradable IP3R3 mutant and GGTi-2418 sensitize tumours to PDT. […] Implanted xenotransplanted mice, chosen randomly, were subjected to two rounds of PDT (see arrows) or left untreated (UT); n=4-6 mice per group. Left panel, tumour growth kinetics at the indicated time points. Middle panel, representative tumours imaged with IRDye 2-DG at the end of the experiment. Top right panel, representative excised tumours imaged 60 days post-injection. Bottom right panel, quantification of tumour weights. P values for the tumour volume and weight at day 60 were calculated by one-way ANOVA and multiple-comparisons test. Error bars indicate s.e.m. […] Middle panel, quantification of apoptosis. […] AFU, arbitrary fluorescence units. P values were calculated by one-way ANOVA and multiple-comparisons test. […] Bottom right panel, quantification of tumour weights. P values for the tumour volume and weight at day 60 were calculated by one-way ANOVA and multiple-comparisons test. […] Middle panel, quantification of apoptosis. […] P values were calculated by one-way ANOVA and multiple-comparisons test. […]
# Experimental animals. […] Tumour growth was monitored daily, and tumour diameters were measured with callipers every other day. The tumour volume was calculated using the following equation: volume=π/6 ×(a×b2), where a is the major diameter and b is the minor diameter. […]
structure (smiles),measurement,setting,value
Cc1nc[nH]c1CN1CCN(C(=O)N[C@@H](CC(C)C)C(=O)O)[C@@H](Cc2ccccc2)C1=O [GGTi-2418],growth rate of xenografts,"GGTi-2418 by itself, two rounds of five consecutive days",only modestly affected the growth rate of xenografts
same,"sensitization of tumour xenografts to PDT (tumour growth, weight, apoptosis)",GGTi-2418 in combination with PDT,sensitizes xenotransplanted tumours to photodynamic therapy; also recorded: significantly sensitized tumour xenografts to PDT
